Assay results taken from ChEMBL document CHEMBL1201862, “PubChem BioAssay data set” (2004).
Calls of active or inactive are those of the source.

Tests used:
[1] = target: T1, Oxysterols receptor LXR-beta (Homo sapiens, UniProt P55055); assay type: functional, cell-based;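 also: agonist activity at LXR measured by a cell-based luminescence readout across a dose range, run as a counterscreen for daf-12 agonists; HEK293 cells with Gal4-LXR fusion and GAL4-driven luciferase reporter; potency for activation of Gal4-LXR reporter so compounds are agonists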
T1 sequence (P55055 whole entry): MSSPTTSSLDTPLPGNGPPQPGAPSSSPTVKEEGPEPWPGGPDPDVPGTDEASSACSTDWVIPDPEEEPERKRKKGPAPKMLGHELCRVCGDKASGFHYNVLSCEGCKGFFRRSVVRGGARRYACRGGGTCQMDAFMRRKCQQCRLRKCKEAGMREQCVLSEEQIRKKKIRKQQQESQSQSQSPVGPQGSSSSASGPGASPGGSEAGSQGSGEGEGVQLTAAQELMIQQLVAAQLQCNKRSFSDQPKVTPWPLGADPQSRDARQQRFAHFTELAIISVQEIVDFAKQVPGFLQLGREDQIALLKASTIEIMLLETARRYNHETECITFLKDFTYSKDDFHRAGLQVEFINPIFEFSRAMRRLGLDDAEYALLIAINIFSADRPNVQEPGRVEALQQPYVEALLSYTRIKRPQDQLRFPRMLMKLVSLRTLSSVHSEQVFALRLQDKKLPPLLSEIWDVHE

[2] = target: T2, Fatty acid synthase (Homo sapiens, UniProt P49327); assay: FAS thioesterase domain inhibitors, dose response, biochemical, endpoint fluorescence intensity, uHTS hits (AID 624327); assay type: functional;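 also: fluorescence from hydrolysis of an O-methyl fluorescein acyl ester substrate by the enzyme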
T2 sequence (P49327 whole entry, the tested form may be a part): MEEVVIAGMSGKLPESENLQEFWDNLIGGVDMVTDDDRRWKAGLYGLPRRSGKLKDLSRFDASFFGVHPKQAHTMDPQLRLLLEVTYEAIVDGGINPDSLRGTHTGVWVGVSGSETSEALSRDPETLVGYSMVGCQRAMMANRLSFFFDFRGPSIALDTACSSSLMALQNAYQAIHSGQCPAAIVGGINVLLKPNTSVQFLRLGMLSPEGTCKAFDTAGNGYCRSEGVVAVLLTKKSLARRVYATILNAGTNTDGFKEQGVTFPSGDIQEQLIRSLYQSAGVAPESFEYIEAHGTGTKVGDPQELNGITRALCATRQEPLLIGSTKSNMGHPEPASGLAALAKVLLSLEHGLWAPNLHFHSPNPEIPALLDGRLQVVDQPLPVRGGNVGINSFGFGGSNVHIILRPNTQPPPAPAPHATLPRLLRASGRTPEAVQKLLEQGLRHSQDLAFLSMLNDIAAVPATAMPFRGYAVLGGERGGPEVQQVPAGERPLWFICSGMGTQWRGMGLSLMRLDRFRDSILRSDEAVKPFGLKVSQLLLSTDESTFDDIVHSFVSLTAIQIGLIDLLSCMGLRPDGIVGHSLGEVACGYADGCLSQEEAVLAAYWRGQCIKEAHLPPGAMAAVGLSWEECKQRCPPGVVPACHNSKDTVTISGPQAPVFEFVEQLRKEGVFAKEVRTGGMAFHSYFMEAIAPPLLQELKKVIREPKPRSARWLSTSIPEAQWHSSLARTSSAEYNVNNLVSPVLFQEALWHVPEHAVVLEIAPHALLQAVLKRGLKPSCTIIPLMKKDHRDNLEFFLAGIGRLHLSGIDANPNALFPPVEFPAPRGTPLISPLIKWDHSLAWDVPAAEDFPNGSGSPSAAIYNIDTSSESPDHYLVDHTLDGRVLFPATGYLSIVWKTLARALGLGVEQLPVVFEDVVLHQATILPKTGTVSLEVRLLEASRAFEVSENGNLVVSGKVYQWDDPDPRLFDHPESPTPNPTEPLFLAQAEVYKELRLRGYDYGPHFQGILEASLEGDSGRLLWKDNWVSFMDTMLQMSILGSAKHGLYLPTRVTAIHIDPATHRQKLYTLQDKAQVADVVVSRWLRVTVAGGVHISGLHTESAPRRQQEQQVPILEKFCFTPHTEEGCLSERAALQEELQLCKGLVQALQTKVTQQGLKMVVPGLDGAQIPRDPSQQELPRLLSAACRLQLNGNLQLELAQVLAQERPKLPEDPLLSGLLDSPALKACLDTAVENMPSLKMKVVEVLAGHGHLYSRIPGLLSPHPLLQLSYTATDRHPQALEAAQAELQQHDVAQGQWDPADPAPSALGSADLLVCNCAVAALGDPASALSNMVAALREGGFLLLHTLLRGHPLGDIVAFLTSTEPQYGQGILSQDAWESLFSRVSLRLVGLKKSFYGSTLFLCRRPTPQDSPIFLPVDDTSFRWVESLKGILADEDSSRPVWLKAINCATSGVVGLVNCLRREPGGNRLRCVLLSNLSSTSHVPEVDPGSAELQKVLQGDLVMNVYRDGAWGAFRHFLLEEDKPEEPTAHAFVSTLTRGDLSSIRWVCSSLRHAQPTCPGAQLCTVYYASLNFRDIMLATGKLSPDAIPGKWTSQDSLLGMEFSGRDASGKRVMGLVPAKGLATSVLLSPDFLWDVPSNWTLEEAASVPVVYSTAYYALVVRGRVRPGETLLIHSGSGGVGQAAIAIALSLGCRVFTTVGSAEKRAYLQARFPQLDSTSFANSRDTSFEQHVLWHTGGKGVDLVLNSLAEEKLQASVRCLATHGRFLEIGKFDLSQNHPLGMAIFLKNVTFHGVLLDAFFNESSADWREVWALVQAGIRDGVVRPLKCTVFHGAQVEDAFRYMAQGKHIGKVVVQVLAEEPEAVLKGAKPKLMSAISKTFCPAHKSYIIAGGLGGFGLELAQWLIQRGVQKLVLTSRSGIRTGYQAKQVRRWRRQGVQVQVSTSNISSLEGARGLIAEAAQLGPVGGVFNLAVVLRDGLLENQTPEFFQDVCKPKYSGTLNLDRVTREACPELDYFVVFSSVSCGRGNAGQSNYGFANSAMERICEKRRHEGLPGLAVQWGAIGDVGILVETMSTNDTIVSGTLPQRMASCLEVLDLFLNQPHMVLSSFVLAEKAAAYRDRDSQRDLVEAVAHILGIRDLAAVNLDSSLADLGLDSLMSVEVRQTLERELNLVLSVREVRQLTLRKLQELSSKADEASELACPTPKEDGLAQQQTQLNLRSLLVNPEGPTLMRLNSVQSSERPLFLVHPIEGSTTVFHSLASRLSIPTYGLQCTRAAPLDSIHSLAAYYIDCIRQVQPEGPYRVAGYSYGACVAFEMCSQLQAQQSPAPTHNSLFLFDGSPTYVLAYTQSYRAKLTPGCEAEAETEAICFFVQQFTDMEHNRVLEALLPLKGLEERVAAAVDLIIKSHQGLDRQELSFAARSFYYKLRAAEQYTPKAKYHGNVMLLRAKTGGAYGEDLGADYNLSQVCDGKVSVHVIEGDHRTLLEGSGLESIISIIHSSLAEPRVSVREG

[3] = cytotoxicity toward NIH3T3 fibroblasts, dose response, counter-screen, cell-based, ATP luminescence, mouse fibroblasts (AID 2010); assay type: functional;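 also: cells exposed to compound for about 90 hours before reading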
[4] = HEK293T cytotoxicity, dose response, cytotoxicity control for miR-122 modulator project, cell-based, activator set, cherry-pick (AID 720690); assay type: functional;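 also: HEK293T human cells scored for general mammalian cytotoxicity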
[5] = Luminescence Cell-Based Dose Retest to Confirm Inhibitors of Cancer Stem Cells. [Related pubchem assays (depositor defined):AID2717, AID2721]; assay type: functional; conditions: Homo sapiens
[6] = target: T2, Fatty acid synthase; assay: FAS thioesterase domain inhibitors, dose response, biochemical, kinetic fluorescence intensity (AID 624326); assay type: functional;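 also: rate of fluorescence rise from hydrolysis of a fluorogenic O-methyl fluorescein ester substrate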
[7] = HEK293T cytotoxicity, dose response, cytotoxicity control for miR-122 modulator project, cell-based, inhibitor set, cherry-pick, set 2 (AID 720697); assay type: functional
[8] = inhibitors of intracellular T. cruzi replication, confirmation, NIH3T3 host cells, beta-gal luminescence (AID 2044); assay type: functional, cell-based;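 also: intracellular parasites grown in NIH/3T3 mouse fibroblasts as host cells; luminescent beta-galactosidase reporter signal from transgenic T. cruzi replicating inside host cells; inhibitors lower the luminescence signal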
[9] = tested on: Vero; assay: Vero cell toxicity, dose response, cytotoxicity control, plate reader, cherry-pick samples (AID 687020); assay type: functional, cell-based; conditions: Chlorocebus sabaeus
[10] = cells; assay type: functional, cell-based
[11] = tested on: INS1; assay: beta cell apoptosis inhibitors, cytokine rescue, dose response, luminescence, retest (AID 449756); assay type: functional, cell-based; conditions: Rattus norvegicus;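 also: cell death triggered by IL-1 beta plus TNF-alpha plus IFN-gamma mixture; protective hits raise ATP signal compared with cytokine alone wells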
[12] = cells; assay type: functional, cell-based; remark: listed apart in the source
[13] = AlphaScreen signal interference compounds, dose response, artefact control for ARNT-TACC3 interaction inhibitor project, biochemical, luminescence, cherry-pick (AID 651705); assay type: functional;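 also: AlphaScreen bead proximity signal that flags compounds interfering with the detection technology; potency reflects signal decrease which marks the compound as an assay artifact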
[14] = target: Nonstructural protein 1 (Influenza A virus, UniProt Q194T2); assay type: functional, Influenza A virus (A/California/07/2009(H1N1))
Nonstructural protein 1, sequence (Q194T2 whole entry): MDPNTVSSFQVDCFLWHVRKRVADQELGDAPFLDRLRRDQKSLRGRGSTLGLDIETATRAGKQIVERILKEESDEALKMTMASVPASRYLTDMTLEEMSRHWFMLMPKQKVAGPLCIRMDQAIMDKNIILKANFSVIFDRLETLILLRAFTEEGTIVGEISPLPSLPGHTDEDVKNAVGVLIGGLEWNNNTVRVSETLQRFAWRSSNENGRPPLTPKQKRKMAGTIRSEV

[15] = target: DNA repair and recombination protein RAD54-like (Homo sapiens, UniProt Q92698); assay: inhibitors of human RAD54 branch migration, confirmation, biochemical, fluorescence, cherry-picked samples, dose series (AID 651657); assay type: functional
[16] = THP-1 cell cytotoxicity, dose response, cytotoxicity control for Vif-APOBEC3G degradation inhibitor project, THP-1 cells (AID 1117359); assay type: functional; conditions: Human immunodeficiency virus 1, THP-1
[17] = target: T3, DNA repair protein RAD52 homolog (Homo sapiens, UniProt P43351); assay type: functional, biochemical
T3 sequence (P43351 whole entry): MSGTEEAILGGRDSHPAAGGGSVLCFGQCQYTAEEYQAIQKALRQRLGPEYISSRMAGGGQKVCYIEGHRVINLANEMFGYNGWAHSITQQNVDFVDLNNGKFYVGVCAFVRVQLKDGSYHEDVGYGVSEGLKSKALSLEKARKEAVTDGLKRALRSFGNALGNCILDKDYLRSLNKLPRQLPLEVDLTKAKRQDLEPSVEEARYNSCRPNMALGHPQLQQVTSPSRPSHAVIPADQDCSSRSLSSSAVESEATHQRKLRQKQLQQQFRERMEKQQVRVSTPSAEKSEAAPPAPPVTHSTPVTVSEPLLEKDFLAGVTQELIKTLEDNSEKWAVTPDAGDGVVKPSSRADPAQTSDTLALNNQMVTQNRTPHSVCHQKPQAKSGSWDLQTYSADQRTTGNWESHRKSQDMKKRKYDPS

[18] = HepG2 cell cytotoxicity, dose response, cytotoxicity control, plate reader, cherry-pick, antagonist series (AID 743416); assay type: functional, cell-based
[19] = MC4R antagonists, dose response, counter-screen for LGR2 antagonist project, cell-based, plate reader, cherry pick (AID 743444); assay type: functional;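 also: transfected HEK 293 cells stimulated with alpha-MSH peptide; potency of inhibitors of the alpha-MSH evoked signal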
[20] = LGR2 antagonists, dose response, cell-based, HEK293, CRE-luciferase reporter, cherry pick, set 2 (AID 743343); assay type: functional;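 also: transfected cells were stimulated with diluted bursicon conditioned medium after compound addition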
[21] = HEK293 cell cytotoxicity, dose response, cytotoxicity control, plate reader, cherry-picked samples (AID 743446); assay type: functional, cell-based
[22] = A549 cell cytotoxicity, dose response, cytotoxicity control, plate reader, cherry-pick, antagonist series (AID 743412); assay type: functional, cell-based
[23] = miR-122 activators in hepatoma reporter cells, dose response, cell-based, Huh7 psiCHECK-miR122, Renilla luciferase, cherry-picked (AID 651956); assay type: functional;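 also: huh7 hepatoma cells stably carrying a psiCHECK-2 miR-122 sensor plasmid; renilla luciferase signal reporting endogenous miR-122 activity after 48 h compound exposure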
[24] = C. albicans growth with fluconazole, confirmation, fluorescence, retest (AID 2467); assay type: functional, cell-based
[25] = target: Paired box protein Pax-8 (Homo sapiens, UniProt Q06710); assay: inhibitors of PAX8-driven TPO luciferase reporter, dose response, RMG-I cells, cherry-pick (AID 687027); assay type: functional, cell-based;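 also: luciferase reporter driven by Pax8 target thyroperoxidase promoter measured by SteadyGlo luminescence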
Paired box protein Pax-8, sequence (Q06710 whole entry): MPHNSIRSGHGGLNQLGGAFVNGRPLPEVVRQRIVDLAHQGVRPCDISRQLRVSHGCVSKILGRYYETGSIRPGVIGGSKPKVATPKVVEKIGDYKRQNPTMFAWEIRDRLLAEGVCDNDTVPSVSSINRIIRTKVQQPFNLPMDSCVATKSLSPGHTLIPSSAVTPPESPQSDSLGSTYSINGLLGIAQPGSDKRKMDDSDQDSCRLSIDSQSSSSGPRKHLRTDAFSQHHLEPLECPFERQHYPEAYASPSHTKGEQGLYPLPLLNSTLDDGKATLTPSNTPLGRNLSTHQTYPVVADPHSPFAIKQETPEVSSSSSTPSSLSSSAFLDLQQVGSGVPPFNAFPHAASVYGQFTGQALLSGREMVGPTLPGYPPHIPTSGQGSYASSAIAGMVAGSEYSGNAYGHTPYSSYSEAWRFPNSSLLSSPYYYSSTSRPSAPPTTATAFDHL

[26] = target: Histone-lysine N-methyltransferase NSD2 (Homo sapiens, UniProt O96028); assay type: biochemical
Histone-lysine N-methyltransferase NSD2, sequence (O96028 whole entry): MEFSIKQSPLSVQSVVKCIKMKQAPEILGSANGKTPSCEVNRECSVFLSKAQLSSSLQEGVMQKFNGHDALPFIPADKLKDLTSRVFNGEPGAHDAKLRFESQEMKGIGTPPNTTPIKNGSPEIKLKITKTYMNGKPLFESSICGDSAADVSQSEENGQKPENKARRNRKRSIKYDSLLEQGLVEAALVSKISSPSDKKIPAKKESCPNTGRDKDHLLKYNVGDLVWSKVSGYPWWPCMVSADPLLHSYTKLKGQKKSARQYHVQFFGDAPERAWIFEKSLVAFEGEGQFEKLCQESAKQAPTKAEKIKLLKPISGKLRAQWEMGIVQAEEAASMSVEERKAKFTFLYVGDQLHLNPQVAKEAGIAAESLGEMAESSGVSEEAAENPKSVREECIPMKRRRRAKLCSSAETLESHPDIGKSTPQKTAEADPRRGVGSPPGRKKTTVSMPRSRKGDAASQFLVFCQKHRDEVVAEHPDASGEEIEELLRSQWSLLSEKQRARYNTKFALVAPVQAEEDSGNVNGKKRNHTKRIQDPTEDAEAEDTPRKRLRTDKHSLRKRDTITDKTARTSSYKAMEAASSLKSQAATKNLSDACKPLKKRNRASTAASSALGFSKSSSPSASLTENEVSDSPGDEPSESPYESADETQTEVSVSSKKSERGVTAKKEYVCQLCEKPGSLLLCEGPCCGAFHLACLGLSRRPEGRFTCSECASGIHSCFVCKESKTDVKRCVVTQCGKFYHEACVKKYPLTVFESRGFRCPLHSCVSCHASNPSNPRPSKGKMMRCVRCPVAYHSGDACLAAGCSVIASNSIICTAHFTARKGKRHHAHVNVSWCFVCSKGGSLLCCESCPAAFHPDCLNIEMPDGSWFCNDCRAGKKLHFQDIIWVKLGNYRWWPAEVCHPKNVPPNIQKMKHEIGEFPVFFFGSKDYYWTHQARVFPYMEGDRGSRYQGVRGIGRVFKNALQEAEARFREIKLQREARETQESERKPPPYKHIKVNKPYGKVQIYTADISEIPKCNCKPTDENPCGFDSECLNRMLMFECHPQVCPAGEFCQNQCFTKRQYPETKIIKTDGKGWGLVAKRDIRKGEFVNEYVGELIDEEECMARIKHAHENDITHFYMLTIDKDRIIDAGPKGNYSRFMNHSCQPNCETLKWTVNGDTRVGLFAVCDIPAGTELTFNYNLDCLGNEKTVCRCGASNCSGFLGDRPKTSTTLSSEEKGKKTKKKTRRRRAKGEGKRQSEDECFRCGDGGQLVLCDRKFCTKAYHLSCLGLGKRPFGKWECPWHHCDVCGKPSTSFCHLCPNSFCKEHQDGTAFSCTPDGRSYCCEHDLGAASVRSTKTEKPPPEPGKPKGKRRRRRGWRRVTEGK

[27] = target: Eukaryotic translation initiation factor 4E (Mus musculus, UniProt P63073); assay: eIF4E–eIF4G protein interaction inhibitors, dose response, biochemical, TR-FRET (AID 855); assay type: functional;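 also: potency for disrupting eIF4E binding to eIF4GI seen as loss of FRET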
[28] = NIH-3T3 fibroblast cytotoxicity, dose response, cytotoxicity control, cell-based, fluorescence, Alamar Blue, secondary assay (AID 2327); assay type: functional;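 also: NIH-3T3 mouse fibroblasts cultured with fluconazole at 8 µg/mL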
[29] = target: Induced myeloid leukemia cell differentiation protein Mcl-1 (Homo sapiens, UniProt Q07820); assay type: functional
Induced myeloid leukemia cell differentiation protein Mcl-1, sequence (Q07820 whole entry): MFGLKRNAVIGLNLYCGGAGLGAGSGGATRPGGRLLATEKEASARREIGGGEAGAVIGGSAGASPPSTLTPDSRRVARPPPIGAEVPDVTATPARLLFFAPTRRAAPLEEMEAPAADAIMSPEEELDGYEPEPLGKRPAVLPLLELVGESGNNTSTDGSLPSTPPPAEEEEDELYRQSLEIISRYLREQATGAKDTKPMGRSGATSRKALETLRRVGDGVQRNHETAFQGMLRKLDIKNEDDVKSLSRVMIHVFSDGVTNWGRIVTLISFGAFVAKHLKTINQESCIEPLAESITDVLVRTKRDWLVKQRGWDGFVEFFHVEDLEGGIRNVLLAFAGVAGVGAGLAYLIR

In the case of `COc1cccc(-c2nc3ccccc3s2)c1`, the EC50 [1] is reported as > 67.5 µM (inactive).
For `CN(C)CCNc1nc2sc3c(c2c(=O)n1CCc1ccccc1)CCCCC3`, the IC50 [2] was 18.8 µM (active), the EC50 [3] was 30.9 µM (active) and the AC50 [4] was 14.7 µM (active). For the same compound, the AC50 [5] was 6.6 µM (active), the IC50 [6] was 19.3 µM (active) and the AC50 [7] was 7.83 µM (active). For the same compound, the EC50 [8] was 0.125 µM (active).
With `CC(C)Oc1ccccc1OC1(C)CCN(Cc2ccc(OC(F)(F)F)cc2)C1` (stereo unspecified) the AC50 [9] was 27.4 µM (active).
In the case of `Cc1ncc(CO)c(/C=N/NC(=O)c2cc3c(s2)CCCC3)c1O`, the EC50 [10] is reported as 11.4 µM (active), the AC50 [11] is reported as 1.89 µM (active) and the EC50 [12] is reported as > 350 µM (not active). The AC50 [13] was 119 µM (active) and the IC50 [14] was 11.9 µM (active).
For `CCOCCCN=C(S)Nc1ccc2nc(N3CCN(CC)CC3)cc(C)c2c1`, the AC50 [15] was 100 µM (inactive), the CC50 [16] was > 40 µM (active) and the AC50 [17] was 33 µM (active).
With `COc1ccccc1CNC(=O)C(=O)Nc1ccc(C(=O)N2CCC(C)CC2)cc1` the AC50 [9] was 25.8 µM (active).
In the case of `C[C@H]1CN([C@@H](C)CO)S(=O)(=O)c2ccc(C#CC(C)(C)O)cc2O[C@@H]1CN(C)Cc1ccc(-c2ccccc2)cc1`, the AC50 [18] is reported as 0.759 µM (active), the AC50 [19] is reported as 20.2 µM (active) and the AC50 [4] is reported as 12.3 µM (active). For the same compound, the AC50 [20] was 29.6 µM (active), the AC50 [21] was 1.95 µM (active) and the AC50 [22] was 0.778 µM (active). The AC50 [7] was 10.7 µM (active) and the AC50 [23] was 7.8 µM (active).
In the case of `CN1c2ccccc2N(C)C1(C)c1ccccc1`, the EC50 [24] is reported as > 38 µM (not active), the EC50 [3] is reported as > 60 µM (not active) and the AC50 [25] is reported as 9.4 µM (active). For the same compound, the AC50 [26] was > 20 µM (inactive), the IC50 [27] was > 64 µM (inactive) and the EC50 [28] was > 150 µM (inactive). The IC50 [29] was 4.95 µM (active), the AC50 [11] was 0.283 µM (active) and the EC50 [8] was 0.278 µM (active).
With `CN1C(=O)c2cc(NC(=O)Nc3cccc(Cl)c3)ccc2OC[C@@H]2O[C@H](CC(=O)NCCc3ccncc3)CC[C@H]21` the AC50 [23] was 16.1 µM (active).
